We go through 3 compounds from ChEMBL document CHEMBL4257454, “Study on the interaction between the 1,4,5,8-naphthalene diimide-spermine conjugate (NDIS) and DNA using a spectroscopic approach and molecular docking” (Medchemcomm, 2017).

The subject of assay [1] is Clupeidae. The assay is described as follows: Binding affinity to herring sperm DNA assessed as hypochromism at 80 uM after 30 mins by UV-visible spectrophotometric method.
The test system of assay [2] is Clupeidae. Nature of the assay: Binding affinity to herring sperm DNA assessed as test compound fluorescence quenching by fluorescence spectroscopic method relative to control.
Assay [3] deals with Clupeidae. The assay is described as follows: Inhibition of ethidium bromide binding to herring sperm DNA assessed as fluorescence quenching of DNA-ethidium bromide complex up to 120 uM after 30 mins by fluorescence spectroscopic assay relative to control. The arrangement: scale not given: the % may be the effect or the level left.
The subject of assay [4] is Clupeidae. The assay is described as follows: Binding affinity to herring sperm DNA assessed as red shift at 80 uM after 30 mins by UV-visible spectrophotometric method.
The subject of assay [5] is Clupeidae. The assay is described as follows: Inhibition of ethidium bromide binding to herring sperm DNA assessed as quenching constant at 298 K after 30 mins by fluorescence spectroscopic assay.
Assay [6] has as its system Clupeidae. Nature of the assay: Binding affinity to herring sperm DNA at 298 K by fluorescence spectroscopic method.
Assay [7] deals with Clupeidae. The assay is described as follows: Binding affinity to herring sperm DNA assessed as quenching constant at 303 K by fluorescence spectroscopic method.
Assay [8] deals with Clupeidae. Nature of the assay: Binding affinity to herring sperm DNA assessed as blue shift at 16 to 48 uM up to 30 mins by circular dichroism method. In general terms: Circular dichroism is widely used to follow secondary structure.
Assay [9] has as its system Clupeidae. The assay is described as follows: Binding affinity to herring sperm DNA groove assessed as fluorescence quenching at DNA to compound molar ratio of >5.5 by fluorescence spectroscopic method.
Assay [10] has as its system Clupeidae. Nature of the assay: Binding affinity to herring sperm DNA assessed as Stern-Volmer quenching constant at 298 K by fluorescence spectroscopic method.
Assay [11] has as its system Clupeidae. The assay is described as follows: Binding affinity to herring sperm DNA assessed as quenching constant at 310 K by fluorescence spectroscopic method.
Assay [12] relates to Clupeidae. The assay is described as follows: Inhibition of ethidium bromide binding to herring sperm DNA at 310 K after 30 mins by fluorescence spectroscopic assay.
In assay [13] the test system is Clupeidae. The assay is described as follows: Inhibition of ethidium bromide binding to herring sperm DNA assessed as quenching constant at 310 K after 30 mins by fluorescence spectroscopic assay.
The test system of assay [14] is Clupeidae. The assay is described as follows: Binding affinity to herring sperm DNA assessed as negative peak at 16 to 48 uM up to 30 mins by circular dichroism method (reference value: 210 nanometer).
Assay [15] relates to Clupeidae. Nature of the assay: Inhibition of ethidium bromide binding to herring sperm DNA assessed as quenching constant at 303 K after 30 mins by fluorescence spectroscopic assay.
The subject of assay [16] is Clupeidae. The assay is described as follows: Binding affinity to herring sperm DNA assessed as quenching constant at 298 K by fluorescence spectroscopic method.
The test system of assay [17] is Clupeidae. Nature of the assay: Binding affinity to herring sperm DNA groove assessed as hyperchromic effect at DNA to compound molar ratio of >5.5 after 30 mins by UV-visible spectrophotometric method.
For assay [18], the system named is Clupeidae. Nature of the assay: Inhibition of ethidium bromide binding to herring sperm DNA at 303 K after 30 mins by fluorescence spectroscopic assay.
The test system of assay [19] is Clupeidae. The assay is described as follows: Binding affinity to herring sperm DNA assessed as positive peak at 16 to 48 uM up to 30 mins by circular dichroism method (reference value: 280 nanometer).
Assay [20] relates to Clupeidae. Nature of the assay: Binding affinity to herring sperm DNA at 40 uM after 30 mins in presence of Na+ by fluorescence quenching method.
In assay [21] the test system is Clupeidae. Nature of the assay: Inhibition of ethidium bromide binding to herring sperm DNA assessed as Stern-Volmer quenching constant at 310 K after 30 mins by fluorescence spectroscopic assay.
In assay [22] the test system is Clupeidae. The assay is described as follows: Binding affinity to herring sperm DNA assessed as Stern-Volmer quenching constant at 310 K by fluorescence spectroscopic method.
Assay [23] relates to Clupeidae. The assay is described as follows: Binding affinity to herring sperm DNA assessed as iodide quenching at 20 uM after 30 mins by fluorescence method (reference value: 27 L/mol).
Assay [24] has as its system Clupeidae. Nature of the assay: Binding affinity to herring sperm DNA after 30 mins by UV-visible spectrophotometric method.
The subject of assay [25] is Clupeidae. Nature of the assay: Inhibition of ethidium bromide binding to herring sperm DNA at 298 K after 30 mins by fluorescence spectroscopic assay.
Assay [26] has as its system Clupeidae. The assay is described as follows: Inhibition of ethidium bromide binding to herring sperm DNA assessed as Stern-Volmer quenching constant at 303 K after 30 mins by fluorescence spectroscopic assay.
Assay [27] has as its system Clupeidae. The assay is described as follows: Binding affinity to herring sperm DNA at 310 K by fluorescence spectroscopic method.
Assay [28] deals with Clupeidae. The assay is described as follows: Binding affinity to herring sperm DNA assessed as Stern-Volmer quenching constant at 303 K by fluorescence spectroscopic method.
In assay [29] the test system is Clupeidae. Nature of the assay: Binding affinity to herring sperm DNA groove assessed as up-field shift at 3 mg by 1H NMR method.
The subject of assay [30] is Clupeidae. Nature of the assay: Inhibition of ethidium bromide binding to herring sperm DNA assessed as Stern-Volmer quenching constant at 298 K after 30 mins by fluorescence spectroscopic assay.
For assay [31], the system named is Clupeidae. Nature of the assay: Binding affinity to herring sperm DNA at 303 K by fluorescence spectroscopic method.
For assay [32], the system named is Clupeidae. The assay is described as follows: Inhibition of ethidium bromide binding to herring sperm DNA assessed as DNA insertion at 3 mg by 1H NMR method.

The source made the active and inactive calls. The calls are words filed in the database; no cut-off is given here.

Turning to `NCCCNCCCCNCCCN1C(=O)c2cccc3cccc(c23)C1=O`, the Activity worked out at 40% with Clupeidae [1], 68.5% with Clupeidae [2] and 77.2% in the assay with Clupeidae [3].
Take `NCCCNCCCCNCCCN1C(=O)c2ccc3c4c(ccc(c24)C1=O)C(=O)N(CCCNCCCCNCCCN)C3=O`: the result with Clupeidae [4], with Clupeidae [8], in the assay on Clupeidae [9], in the assay on Clupeidae [17], in the assay on Clupeidae [20] and in the assay with Clupeidae [29] was Active. Besides, in the assay with Clupeidae [32], the outcome was Active. In addition, the Kq in the assay with Clupeidae [5] came to 1.18 ×10¹³ L/mol; in the assay with Clupeidae [7], 5.63 ×10¹¹ L/mol; in the assay on Clupeidae [11], 4.63 ×10¹¹ L/mol; in the assay with Clupeidae [13], 1.45 ×10¹³ L/mol; with Clupeidae [15], 1.28 ×10¹³ L/mol; in the assay with Clupeidae [16] it was 5.32 ×10¹¹ L/mol. For the same compound, the Kb with Clupeidae [6] came out at 1.38 ×10⁴ L/mol; with Clupeidae [12], 1.21 ×10⁵ L/mol; in the assay on Clupeidae [18], 1.25 ×10⁵ L/mol; in the assay with Clupeidae [25], 1.23 ×10⁵ L/mol; with Clupeidae [27], 1.7 ×10⁴ L/mol; in the assay with Clupeidae [31] it was 1.25 ×10⁴ L/mol. In addition, the KSV with Clupeidae [10] was 5.32 ×10³ L/mol; in the assay on Clupeidae [21], 1.45 ×10⁵ L/mol; with Clupeidae [22], 4.63 ×10³ L/mol; in the assay on Clupeidae [23] it was 18.1 L/mol; in the assay on Clupeidae [26], 1.28 ×10⁵ L/mol; in the assay on Clupeidae [28] it was 5.63 ×10³ L/mol. For the same compound, the KSV in the assay with Clupeidae [30] came out at 1.18 ×10⁵ L/mol. The Activity with Clupeidae [14] amounted to 245 nm; in the assay with Clupeidae [1] it was 60.7%; in the assay with Clupeidae [19], 280 nm; in the assay with Clupeidae [2], 91%; in the assay on Clupeidae [3], 87.8%. In the assay on Clupeidae [24], the Kapp came to 1.55 ×10³ L/mol.
`NCCCCNCCCN`: the Kapp in the assay with Clupeidae [24] worked out at 1.47 ×10⁵ L/mol.
